Measurements published in US20240261294A1, “METHOD FOR TREATING IDH INHIBITOR-RESISTANT SUBJECTS” (Eli Lilly and Company, priority 2021, published 2024).
Substitutions are numbered along the chain they refer to. Read-outs that look alike come from different tables or passages of the source.

How the values were obtained:
IDH2 R140Q + Q316E trans = biological target: T1, IDH2 R140Q + Q316E trans (Homo sapiens, UniProt P48735, Q316E/R140Q); experiment: Inhibition of 2-HG production in IDH2 mutant U-87 MG cells; format: cell-based
T1 construct: expressed in transfected cells; host or cells: U-87 MG
T1 sequence (P48735 40-452 R140Q): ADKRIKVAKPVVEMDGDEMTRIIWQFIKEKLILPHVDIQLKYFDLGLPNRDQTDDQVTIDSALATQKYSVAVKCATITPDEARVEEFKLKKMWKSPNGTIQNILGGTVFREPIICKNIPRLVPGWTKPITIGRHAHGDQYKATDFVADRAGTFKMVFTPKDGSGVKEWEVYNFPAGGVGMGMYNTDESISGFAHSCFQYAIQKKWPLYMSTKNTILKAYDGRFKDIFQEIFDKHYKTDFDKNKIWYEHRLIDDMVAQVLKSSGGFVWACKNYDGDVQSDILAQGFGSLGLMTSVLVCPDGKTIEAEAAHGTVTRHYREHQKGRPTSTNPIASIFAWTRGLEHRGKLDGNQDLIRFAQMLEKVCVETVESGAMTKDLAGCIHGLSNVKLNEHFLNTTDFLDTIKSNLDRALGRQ
T1 sequence (P48735 40-452 Q316E): T1 sequence (P48735 40-452 R140Q) with Q101R, Q277E

IDH2 R172K_G260A cis = biological target: T2, IDH2 R172K_G260A cis (Homo sapiens, UniProt P48735, G260A/R172K); experiment: as above; format: cell-based; conditions: 16 hours incubation, 50K cells/well, 100 μl media/well, read-out: Relative IC50 (nM) Mean, inhibition of 2-HG production
T2 construct: expressed in transfected cells; host or cells: U-87 MG
T2 sequence (P48735 40-452 R172K/G260A): T1 sequence (P48735 40-452 R140Q) with Q101R, R133K, G221A

`C=CC(=O)N1CCN([C@@H](CC2CC2)c2ccc([C@H](C)Nc3ncc4c(n3)N(CC)C(=O)OC4)cc2)CC1` [Compound A, 7-[[(1S)-1-[4-[(1S)-2-cyclopropyl-1-(4-prop-2-enoylpiperazin-1-yl)ethyl]phenyl]ethyl]amino]-1-ethyl-4H-pyrimido[4,5-d][1,3]oxazin-2-one] gave an IC50 (IDH2 R140Q + Q316E trans; IDH2 R140Q + Q316E trans, 72 hours incubation, 12.5K cells/well, 150 μl media/well, read-out: IC50, inhibition of 2-HG production) of 5.84 nM, an IC50 (IDH2 R140Q + Q316E trans; IDH2 R140Q_Q316E trans, 16 hours incubation, 50K cells/well, 100 μl media/well, read-out: Relative IC50 (nM) Mean, inhibition of 2-HG production) of 23 nM and an IC50 (IDH2 R172K_G260A cis) of 13 nM.
